Measured values published in patent US20250027930A1, “SMALL MOLECULES FOR REPROGRAMING ANTI-TUMOR IMMUNITY OF T CELLS” (THE SCRIPPS RESEARCH INSTITUTE, priority 2021, published 2025).

Columns and labels:
OT-I splenocytes = assay: OT-I splenocyte culture with purine/pyrimidine pathway compounds; assay type: cell-based, mouse
Protocol: We therefore tested if purine and pyrimidine nucleotides have similar effects as N-Acetylneuraminic acid to help maintain less differentiated phenotypes of T cells during expansion. OT-I splenocytes were cultured with 500 nM […] peptide (OVA257-264) for three days at initial cell density of 1×10^6/mL to activate and expand the CD8+ T cell population. Different concentrations of the products or intermediates in purine or pyrimidine de novo synthesis pathways were added on day 3. The tested compounds include, e.g., guanosine, deoxyguanosine, adenosine, deoxyadenosine, inosine, xanthosine, orotidine, uridine, cytidine, deoxycytidine, thymidine, deoxythymidine, 5-Aminoimidazole-4-carboxamide ribonucleotide (AICAR), orotate, and dihydroorotate. The phenotype of expanded T cells were analyzed on day 5.

P14 cells = assay: P14 splenocyte in vitro activation, re-stimulation and expansion; assay type: cell-based, mouse; conditions: for Fold of proliferation, Normalized to W/O: P14 cells
OT-1 cells [1] = assay: OT-1 cells treated with K+ or p38i; assay type: cell-based, mouse
From the text: We also tested two small molecules (KCl and p38i) reported in papers. (Science 2019, 363, (6434); Cancer Cell 2020, 37, (6), 818-833 e9).

OT-1 cells [2] = assay: OT-I-Tcf7GFP splenocyte screen: proliferation and Tim3−TCF-1+ ratio; assay type: cell-based, mouse; conditions: Day7; for Tim3^−TCF-1^+ ratio of CD8^+ T cells (%): w/o 2.6
Protocol: Cell number was recorded on day 3 and day 7. On day 7, cells were stained with anti-CD8a (PerCP-Cy5.5) and anti-Tim3 (BV421) antibodies for flow cytometry or plate reader analysis.
Because TCF1 expression positively correlates with T cell stemness, the greater signal of EGFP a T cell expresses, the less differentiated the T cell is. Furthermore, if the compound also facilitates T cells proliferation, there would be more T cells per well in comparison to the untreated control. Therefore, a compound that not only maintains TCF-1 expression but also facilitates T cell growth would produce the strongest green fluorescence intensity. […] GlcA stands for glucuronic acid.

P14 CD8+ T cells = assay type: in vivo, mouse; conditions: 14 dpi LCMV-Cl13; cells treated in vitro, vs untreated
OT-1 CD8+ T cells = assay: OT-1 splenocyte activation and expansion, day 7 flow cytometry; assay type: cell-based, mouse; conditions: OT-1 cells day 7; compared with fructose or sucrose
Protocol: Naïve splenocytes from OT-1 mice were stimulated in vitro with OVA257-264 (500 nM) and IL-2 (60 IU/mL) in the presence or absence of an added compound for 3 days at a density of 1 million/mL (100 uL/well in 96/well plate), then expanded for 4 days. On day 7, PD-1, Tim3 and TCF-1 expressions were assessed by flow cytometry by staining cells with anti-CD8a (PerCP-Cy5.5), anti-Tim3 (BV421) and anti-TCF-1 (AF488) antibodies. For adoptive transfer, 0.6M B16-OVA cells (6×10^5) were inoculated subcutaneously 3 to 5 days before transfer in C57BL/6. On the day of adoptive transfer, mice were irradiated with 5 Gy X-ray, randomized according to tumor size, and intravenously injected with 0.2-0.3M of CD8+OT-1 T cells (2×10^5) expanded under different conditions, followed by administration of 50000 IU IL-2 every 12 h for four days. In the control group, mice were injected with cell-free vehicle only. For assessment of adoptive transfer of OT-1 CD8+ T cells activated and expanded by contacting the cells with fructose, on day 9 after transfer, anti-PD-1 (100 ug/mouse) was administered to the mice that had received T cell transfer. For assessment of adoptive transfer of OT-1 CD8+ T cells activated and expanded by contacting cells with Neu5Ac, on day 14 and day 21 after transfer, anti-PD-1 (100 ug/mouse) was administered to the mice that had received T cell transfer. The tumor growth was monitored every 3 to 4 days by measuring tumor size. Percent survival was also monitored and recorded within a period of 40 days post treatment. To evaluate tumor infiltrating OT-1 T cells, 0.6M B16-OVA cells (6×10^5) were inoculated subcutaneously 3 to 5 days before transfer in C57BL/6. […] Tumors were then isolated and assessed for percentage of OT-I T cells from the total CD8+ T cells and OT-1 T cell number per gram of tumor tissue. […] On day 7 or 8 cells were taken and analyzed by assessment of ROS, NADPH/NADP+ ratio, and GSH/GSSG ratio.

B16-OVA tumor = assay type: in vivo, mouse; conditions: adoptive transfer of sugar-treated OT-1 T cells; vs untreated T cells
Protocol: Naïve splenocytes from OT-1 mice were stimulated in vitro with OVA257-264 (500 nM) and IL-2 (60 IU/mL) in the presence or absence of an added compound for 3 days at a density of 1 million/mL (100 uL/well in 96/well plate), then expanded for 4 days. On day 7, PD-1, Tim3 and TCF-1 expressions were assessed by flow cytometry by staining cells with anti-CD8a (PerCP-Cy5.5), anti-Tim3 (BV421) and anti-TCF-1 (AF488) antibodies. For adoptive transfer, 0.6M B16-OVA cells (6×10^5) were inoculated subcutaneously 3 to 5 days before transfer in C57BL/6. On the day of adoptive transfer, mice were irradiated with 5 Gy X-ray, randomized according to tumor size, and intravenously injected with 0.2-0.3M of CD8+OT-1 T cells (2×10^5) expanded under different conditions, followed by administration of 50000 IU IL-2 every 12 h for four days. In the control group, mice were injected with cell-free vehicle only. For assessment of adoptive transfer of OT-1 CD8+ T cells activated and expanded by contacting the cells with fructose, on day 9 after transfer, anti-PD-1 (100 ug/mouse) was administered to the mice that had received T cell transfer. For assessment of adoptive transfer of OT-1 CD8+ T cells activated and expanded by contacting cells with Neu5Ac, on day 14 and day 21 after transfer, anti-PD-1 (100 ug/mouse) was administered to the mice that had received T cell transfer. The tumor growth was monitored every 3 to 4 days by measuring tumor size. Percent survival was also monitored and recorded within a period of 40 days post treatment. To evaluate tumor infiltrating OT-1 T cells, 0.6M B16-OVA cells (6×10^5) were inoculated subcutaneously 3 to 5 days before transfer in C57BL/6. On the day of adoptive transfer, mice were irradiated with 5 Gy X-ray, randomized according to tumor size, and intravenously injected with 0.2-0.3M of CD8+OT-1 T cells (2×10^5) expanded under different conditions, followed by administration of 50000 IU IL-2 every 12 h for four days. Tumors were then isolated and assessed for percentage of OT-I T cells from the total CD8+ T cells and OT-1 T cell number per gram of tumor tissue. To evaluate apoptosis, Naïve OT-1 splenocytes were stimulated by OVA257-264 (500 nM) without IL-2 in the presence of absence of sugars for 5 days followed by using Annexin V Apoptosis detection kit (Biolegend). […] To evaluate other cellular characteristics, naïve OT-1 splenocytes were stimulated by OVA257-264 (500 nM) with IL-2 (60 IU/mL) in the presence or absence of sugars for 7 or 8 days. On day 7 or 8 cells were taken and analyzed by assessment of ROS, NADPH/NADP+ ratio, and GSH/GSSG ratio.

N#Cc1cc(Nc2ncc3c(n2)CCCCC3=O)cs1 [Inhibitor G6PDi-1, reference compound]
cell proliferation (OT-I splenocytes; added on day 3, analyzed day 5): without significant impact on cell proliferation | increase of the proportion of Tim3−TCF1+ T cells by a factor (OT-I splenocytes; added on day 3, analyzed day 5): 1.5

[Cl-].[K+] [K^+, KCl]
slowed down T cell proliferation (P14 cells; compared to untreated T cells): 10-20% | Tim3−TCF-1+ ratio of OT-1 cells (in words) (OT-1 cells [1]): increased | proliferation of OT-1 cells (in words) (OT-1 cells [1]): slightly inhibit | Proliferation fold, Normalized to W/O (OT-1 cells [1]; Day 7, 40 mM, OT-1 cells): 0.87 fold | Tim3^−TCF-1^+ ratio of CD8^+ T cells (%) (OT-1 cells [1]; Day 7, 40 mM, W/O 9.5): 80.7%

OC[C@H]1O[C@@H](O[C@H]2[C@H](O)[C@@H](O)C(O)O[C@@H]2CO)[C@H](O)[C@@H](O)[C@H]1O (some centres unmarked) [Lactose, lactose]
Tim3^−TCF-1^+ ratio of CD8^+ T cells (%) (OT-1 cells [2]; 60 mM): 25.6% | activity at 60000 µM (OT-1 cells [2]; Mus musculus, Splenocyte, 168 h, 60 mM, OT-1 cells, read-out: Proliferation fold, Normalized to W/O): 63% | Fold of proliferation, Normalized to W/O (P14 cells; Day6, 60 mM): 1.87 fold | Tim3^−TCF-1^+ ratio of CD8^+ T cells (%) (P14 cells; Day6, 60 mM, w/o 55.0): 79.4% | Fold of proliferation, Normalized to W/O (P14 cells; Day9, 60 mM): 1.76 fold | Tim3^−TCF-1^+ ratio of CD8^+ T cells (%) (P14 cells; Day9, 60 mM, w/o 3.5): 23.7% | percentages and total numbers of expanded virus-specific P14 CD8+ T cells in the spleen and liver (P14 CD8+ T cells): significantly higher | percentage of Tim3−TCF-1+ CD8+ T cells (in words) (OT-1 CD8+ T cells): increased the percentage of Tim3−TCF-1+ CD8+ T cells but at a lower level | capabilities to control tumor growth (B16-OVA tumor): significantly better

CCN(c1cc(-c2ccc(CN3CCOCC3)cc2)cc(C(=O)NCc2c(C)cc(C)[nH]c2=O)c1C)C1CCOCC1 [Taz, Tazemetostat]
cell survival when added on day 0 together with OVA257-264 peptide (OT-I CD8 T cells): all cells were found dead | fold increase in progenitor exhausted cells (OT-I CD8 T cells; day 7, Taz (3-7), 400 nM): 2.5-3.5 fold | progenitor exhausted cells (Tim3^−TCF-1^+) (OT-I CD8 T cells; day 7, Taz (3-7), 400 nM, without Taz 8.47%): 27.7%

OC[C@H]1O[C@H](O[C@H]2O[C@H](CO)[C@@H](O)[C@H](O)[C@H]2O)[C@H](O)[C@@H](O)[C@@H]1O [Trehalose, trehalose]
Tim3^−TCF-1^+ ratio of CD8^+ T cells (%) (OT-1 cells [2]; 80 mM): 35.4% | activity at 80000 µM (OT-1 cells [2]; Mus musculus, Splenocyte, 168 h, 80 mM, OT-1 cells, read-out: Proliferation fold, Normalized to W/O): 84% | Fold of proliferation, Normalized to W/O (P14 cells; Day6, 80 mM): 1.42 fold | Tim3^−TCF-1^+ ratio of CD8^+ T cells (%) (P14 cells; Day6, 80 mM, w/o 55.0): 83.2% | Fold of proliferation, Normalized to W/O (P14 cells; Day9, 80 mM): 1.47 fold | Tim3^−TCF-1^+ ratio of CD8^+ T cells (%) (P14 cells; Day9, 80 mM, w/o 3.5): 34.6%

Nc1nc2c(ncn2[C@@H]2O[C@H](CO)[C@@H](O)[C@H]2O)c(=O)[nH]1 [guanosine]
cell proliferation (OT-I splenocytes; added together with N-Acetylneuraminic acid on day 3, analyzed day 5): without significant impact on cell proliferation
